Source: paper PMC9495829, “Quercetin Is a Novel Inhibitor of the Choline Kinase of Streptococcus pneumoniae” (Antibiotics, 2022)

Target: T1, choline kinase of Streptococcus pneumoniae (sChoK) (Streptococcus pneumoniae, UniProt Q8DPI4)
T1 construct: gene pck
Assay: colorimetric choline kinase assay (IC50); PK/LDH kinetics on purified recombinant sChoK (Ki […] +/- […], unit inferred)
Format: biochemical

T1 sequence (Q8DPI4 entry or part of it): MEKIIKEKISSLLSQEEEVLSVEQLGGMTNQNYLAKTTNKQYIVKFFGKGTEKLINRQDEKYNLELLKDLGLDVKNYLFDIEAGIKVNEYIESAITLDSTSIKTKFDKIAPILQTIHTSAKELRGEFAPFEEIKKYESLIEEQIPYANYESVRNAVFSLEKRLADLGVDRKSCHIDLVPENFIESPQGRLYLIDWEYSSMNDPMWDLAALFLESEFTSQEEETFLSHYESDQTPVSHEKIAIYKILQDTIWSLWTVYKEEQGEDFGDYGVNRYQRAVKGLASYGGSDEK

Question: With `O=c1c(O)c(-c2ccc(O)c(O)c2)oc2cc(O)cc(O)c12` [quercetin] as the compound, how does the IC50 read?
Answer: 6.18 µM
